Data on eight molecules can be found in US20260144788A1, “COMPOUND FOR SHP2 PROTEIN DEGRADATION AND MEDICAL USES THEREOF” (UBIX THERAPEUTICS, INC., priority 2022, published 2026).

This experiment addresses T1, SHP2 protein (Homo sapiens, UniProt Q06124).
T1 sequence (Q06124 1-593): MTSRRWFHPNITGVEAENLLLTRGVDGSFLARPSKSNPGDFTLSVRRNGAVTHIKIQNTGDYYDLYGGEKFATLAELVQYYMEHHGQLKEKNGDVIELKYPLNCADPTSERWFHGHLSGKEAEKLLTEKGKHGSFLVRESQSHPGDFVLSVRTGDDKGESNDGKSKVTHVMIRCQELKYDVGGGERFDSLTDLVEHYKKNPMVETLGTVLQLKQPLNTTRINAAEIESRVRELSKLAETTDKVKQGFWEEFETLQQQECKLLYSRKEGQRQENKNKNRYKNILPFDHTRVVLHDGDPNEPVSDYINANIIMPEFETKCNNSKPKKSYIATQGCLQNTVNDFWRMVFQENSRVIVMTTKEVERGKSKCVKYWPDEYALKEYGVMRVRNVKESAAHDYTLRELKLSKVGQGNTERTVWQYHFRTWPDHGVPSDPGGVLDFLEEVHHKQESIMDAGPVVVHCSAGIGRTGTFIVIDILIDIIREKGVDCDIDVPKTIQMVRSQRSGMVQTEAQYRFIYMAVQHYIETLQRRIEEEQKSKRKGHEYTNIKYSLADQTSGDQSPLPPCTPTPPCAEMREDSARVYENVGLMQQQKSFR
The experiment can be described thus: Measurement of SHP2 protein degradation in NCI-H358 cells (western blotting). The format is cell-based. Set-up: endogenous in cells; host or cells: NCI-H358. The settings on record: harvested after 24 hours. As for the experimental part: H358 cells were treated with the synthesized Example compounds, and the amount of SHP2 protein present in the cells was measured using western blotting detection. The protocol for the experiment using H358 cells is as follows.
[Culture]H358 cells were resuspended in RPMI1640 with 25 mM HEPES (Hyclone, SH30255.01), 10% FBS (Hyclone, SV30207.02), 1% Penicillin-streptomycin (Welgene, LS 202-02) media, seeded at 3×10^5/mL in 12-well plates (1 mL each), and cultured for 24 hours.
[Compound treatment] Before compound treatment, the media was changed to 1 mL media, and then the 12-well plate was treated as follows. The 10 mM stock dissolved in DMSO was serially diluted 1/100 or 1/10 with the media, and the compound was treated to the cells at a final concentration of 0.001, 0.01, and 0.1 μM, and harvested after 24 hours. For the negative control group, DMSO diluted 1/1000 in the media was added (1 μL DMSO+999 μL media).
[Harvest]24 hours after compound treatment, each well was scraped with a cell lifter (SPL, 90040), pipetted with a 1 mL pipette, collected in a 1.5 mL microtube, and centrifuged (500 g, 5 min, 4° C.). The supernatant was removed, washed with PBS, and centrifuged again (500 g, 5 min, 4° C.). Afterwards, the supernatant was removed to prepare a pellet.
[Cell lysis and sample preparation] Lysis buffer was prepared as follows. RIPA buffer (Biosesang, RC2038-050-00)+0.5 mM PMSF (SIGMA, P7626)+1× Protease/Phosphatase Inhibitor (Cell signaling, 5872S) were added at 30 μL per tube, vortexed, and incubated on ice for 30 minutes. Afterwards, sonication was performed (10 sec pulse, 30 sec rest, 5 cycles, 70% amplification) and centrifugation was performed (15,000 g, 15 min, 4° C.), and only the supernatant was transferred to a microtube. A 96-well plate was diluted to 1/4 with 7.5 μL of RIPA buffer and 2.5 μL of sample, and 200 μL each was added after mixing A and B of the BCA Protein Assay Kit (iNtRON, 21071) in a ratio of 50:1. The plate was incubated at 37° C. for 30 minutes and left at room temperature for 10 minutes. After shaking for 10 seconds with a SYNERGY H1 microplate reader from BioTek, the absorbance was measured at 562 nm. The protein was quantified using the measured value to make a sample, which was then incubated at 70° C. for 10 minutes. The sample buffer used here was a mixture of NuPAGE or Bolt 4× sample buffer (Invitrogen) and each 10× sample reducing agent depending on the gel to be used, and RIPA buffer was used for protein dilution.
[Western blotting detection] Equal amounts of samples were loaded onto NuPAGE or Bolt Bis-tris 4-12% gradient gel and run (200 V, 35 min). This was transferred to […] NC membrane using Trans-blot Turbo (BIO-RAD) (1.3 A constant, 25 V limit, 15 min), and blocked with 5% skim milk/0.2% TBST for 45 min at room temperature. Anti-SHPTP2 Mouse (1:1,000 in 5% skim milk/0.2% TBST, size: 70 kDa, Santa cruz sc-7384) and Anti-GAPDH Rabbit (1:2,000 in 5% skim milk or 5% BSA/0.2% TBST, size: 37 kDa, CST #2118) were added and incubated overnight at 4° C. After washing three times with 0.2% TBST washing buffer for 5 minutes each, secondary antibodies Anti-Mouse IgG (1:5,000 in 5% skim milk/0.2% TBST, CST) and IRDye® 680RD Goat anti-Rabbit IgG Secondary Antibody (1:10,000 in 5% skim milk/0.2% TBST, LI-COR 926-68071) were added, and incubated on a rocker at room temperature for 45 minutes. The resultants were washed five times with 0.2% TBST washing buffer for 5 minutes each, and detected using LI-COR's Odyssey. GAPDH was detected with a 700 nm channel, and SHPTP2 was detected using SuperSignal West Pico PLUS Chemiluminescent Substrate.
(Immunoblotting shows a protein as a band on a membrane.)

With `Cc1cn([C@H](C(=O)N2C[C@H](O)C[C@H]2C(=O)NCc2ccc(-c3scnc3C)cc2OC2CCN(C(=O)C3CCN(c4nccc(Sc5cnc(N6CCC(C)(N)CC6)c(CO)n5)c4Cl)CC3)CC2)C(C)C)nn1` [Example 109, (2S,4R)—N-(2-((1-(1-(4-((5-(4-amino-4-methylpiperidin-1-yl)-6-(hydroxymethyl)pyrazin-2-yl)thio)-3-chloropyridin-2-yl)piperidine-4-carbonyl)piperidin-4-yl)oxy)-4-(4-methylthiazol-5-yl)benzyl)-4-hydroxy-1-((S)-3-methyl-2-(4-methyl-1H-1,2,3-triazol-1-yl)butanoyl)pyrrolidine-2-carboxamide], the SHP2% degradation is, setting by setting: (0.01 μM) 99.0%; (0.1 μM) 99.4%.
The matching figures for `Cc1ncsc1-c1ccc(CNC(=O)[C@@H]2C[C@@H](O)CN2C(=O)[C@@H](NC(=O)CC#N)C(C)(C)C)c(OC2CCN(C(=O)C3CCN(c4nccc(Sc5cnc(N6CCC7(CC6)CO[C@@H](C)[C@H]7N)c(CO)n5)c4Cl)CC3)CC2)c1` [Example 88, (2S,4R)—N-(2-((1-(1-(4-((5-((3S,4S)-4-amino-3-methyl-2-oxa-8-azaspiro[4.5]decan-8-yl)-6-(hydroxymethyl)pyrazin-2-yl)thio)-3-chloropyridin-2-yl)piperidine-4-carbonyl)piperidin-4-yl)oxy)-4-(4-methylthiazol-5-yl)benzyl)-1-((S)-2-(2-cyanoacetamido)-3,3-dimethylbutanoyl)-4-hydroxypyrrolidine-2-carboxamide]: 97.0% and 99.9%.
The matching figures for `Cc1cc(C(C(=O)N2C[C@H](O)C[C@H]2C(=O)NCc2ccc(-c3scnc3C)cc2O[C@H]2CC[C@H](C(=O)N3CC(Nc4cccc(Sc5cnc(N6CCC(C)(CN)CC6)cn5)c4Cl)C3)CC2)C(C)C)on1` (stereo partly drawn) [Example 115, (2S,4R)—N-(2-(((1R,4S)-4-(3-((3-((5-(4-(aminomethyl)-4-methylpiperidin-1-yl)pyrazin-2-yl)thio)-2-chlorophenyl)amino)azetidine-1-carbonyl)cyclohexyl)oxy)-4-(4-methylthiazol-5-yl)benzyl)-4-hydroxy-1-(3-methyl-2-(3-methylisoxazol-5-yl)butanoyl)pyrrolidine-2-carboxamide]: 98.3% and 99.2%.
The matching figures for `CC(=O)N[C@H](C(=O)N1C[C@H](O)C[C@H]1C(=O)NCc1ccc(-c2scnc2C)cc1O[C@H]1CC[C@H](C(=O)N2CCC(Nc3nccc(Sc4cnc(N5CCC(C)(CN)CC5)c(CO)n4)c3Cl)CC2)CC1)C(C)(C)C` [Example 45, (2S,4R)-1-((S)-2-acetamido-3,3-dimethylbutanoyl)-N-(2-(((1r,4S)-4-(4-((4-((5-(4-(aminomethyl)-4-methylpiperidin-1-yl)-6-(hydroxymethyl)pyrazin-2-yl)thio)-3-chloropyridin-2-yl)amino)piperidine-1-carbonyl)cyclohexyl)oxy)-4-(4-methylthiazol-5-yl)benzyl)-4-hydroxypyrrolidine-2-carboxamide]: 97.0% and 99.4%.
As to `Cc1cc(C(C(=O)N2C[C@H](O)C[C@H]2C(=O)NCc2ccc(-c3scnc3C)cc2OC2CCN(C(=O)C3CCN(c4nccc(Sc5cnc(N6CCC(C)(N)CC6)cn5)c4Cl)CC3)CC2)C(C)C)on1` (stereo partly drawn) [Example 94, (2S,4R)—N-(2-((1-(1-(4-((5-(4-amino-4-methylpiperidin-1-yl)pyrazin-2-yl)thio)-3-chloropyridin-2-yl)piperidine-4-carbonyl)piperidin-4-yl)oxy)-4-(4-methylthiazol-5-yl)benzyl)-4-hydroxy-1-(3-methyl-2-(3-methylisoxazol-5-yl)butanoyl)pyrrolidine-2-carboxamide], the SHP2% degradation runs as follows: (0.01 μM) 95.5%; (0.1 μM) 100.0%.
On to `Cc1cc(C(C(=O)N2C[C@H](O)C[C@H]2C(=O)NCc2ccc(-c3scnc3C)cc2OC2CCN(C(=O)C3CCN(c4nccc(Sc5cnc(N6CCC7(CC6)CO[C@@H](C)[C@H]7N)cn5)c4Cl)CC3)CC2)C(C)C)on1` (stereo partly drawn) [Example 95, (2S,4R)—N-(2-((1-(1-(4-((5-((3S,4S)-4-amino-3-methyl-2-oxa-8-azaspiro[4.5]decan-8-yl)pyrazin-2-yl)thio)-3-chloropyridin-2-yl)piperidine-4-carbonyl)piperidin-4-yl)oxy)-4-(4-methylthiazol-5-yl)benzyl)-4-hydroxy-1-(3-methyl-2-(3-methylisoxazol-5-yl)butanoyl)pyrrolidine-2-carboxamide], for which the SHP2% degradation amounted to 99.2% (0.01 μM) and 99.7% (0.1 μM).
For `CC(=O)N[C@H](C(=O)N1C[C@H](O)C[C@H]1C(=O)NCc1ccc(-c2scnc2C)cc1OC1CCN(C(=O)C2CCN(c3nccc(Sc4cnc(N5CCC(C)(CN)CC5)c(CO)n4)c3Cl)CC2)CC1)C(C)(C)C` [Example 78, (2S,4R)-1-((S)-2-acetamido-3,3-dimethylbutanoyl)-N-(2-((1-(1-(4-((5-(4-(aminomethyl)-4-methylpiperidin-1-yl)-6-(hydroxymethyl)pyrazin-2-yl)thio)-3-chloropyridin-2-yl)piperidine-4-carbonyl)piperidin-4-yl)oxy)-4-(4-methylthiazol-5-yl)benzyl)-4-hydroxypyrrolidine-2-carboxamide] the same measures were 98.0% and 99.4%.
Consider `CC(=O)N[C@H](C(=O)N1C[C@H](O)C[C@H]1C(=O)NCc1ccc(-c2scnc2C)cc1O[C@H]1CC[C@H](C(=O)N2CC(N3CCc4c(Sc5cnc(N6CCC7(CC6)CO[C@@H](C)[C@H]7N)cn5)cccc43)C2)CC1)C(C)(C)C` [Example 32, (2S,4R)-1-((S)-2-acetamido-3,3-dimethylbutanoyl)-N-(2-(((1R,4S)-4-(3-(4-((5-((3S,4S)-4-amino-3-methyl-2-oxa-8-azaspiro[4.5]decan-8-yl)pyrazin-2-yl)thio)indolin-1-yl)azetidine-1-carbonyl)cyclohexyl)oxy)-4-(4-methylthiazol-5-yl)benzyl)-4-hydroxypyrrolidine-2-carboxamide], for which the SHP2% degradation by setting is: (0.01 μM) 54.4%; (0.1 μM) 98.5%.
